Experimental data reported in US20090042905A1, “TRIAZOLE DERIVATIVES AS LIGANDS OF G-PROTEIN COUPLED RECEPTORS” (AETERNA ZENTARIS GmbH, priority 2007, published 2009).
Like-named read-outs stand apart in the source and are kept apart here.

Experiments:
[1] = system: C57BL/6 male mice fed a high-fat diet; assay: Diet-induced obesity (DIO) in mice, subchronic s.c. treatment; assay type: in vivo, mouse; details: for Fat mass / Food efficiency / Lean mass / Σ Fat depots / Body weight gain / Cumulative food intake / Glucose / Insulin: 2 weeks; for Body weight gain / Cumulative food intake: difference day 35 vs day 21; for body weight gain (in words): two weeks of treatment; for Glucose / Insulin: plasma
Method: The effectiveness of selected compounds of the invention, i.e. their subchronic effects, on the energy balance of mice rendered obese by a high-fat diet was investigated.
Adult C57BL/6 male mice were fed ad libitum with either chow or a high-fat diet (60% of the calorie content from fat) for 5 weeks.
C57BL/6 mice fed with a high-fat diet readily develop obesity and represent a widely used model for investigating human obesity.
One-third of the dose was injected in the morning and two-third in the evening.
Body weight and food intake were monitored every day during the experiment. Body composition (lean and fat mass) was assessed using dual energy x-ray absorptiometry (DEXA) on day 0, 13 and 27. Blood was also sampled at sacrifice for the determination of plasma glucose, insulin and triglycerides.

[2] = system: differentiated 3T3-L1 cells; assay: Inhibition of isoproterenol-induced lipolysis by QRFP, and its antagonism by compounds, in an adipocyte cell line model (glycerol release); assay type: cell-based, mouse; details: for IC50 of QRFP-26 (inhibition of isoproterenol-induced lipolysis), shifted in presence of compound: 100 nM isoproterenol; for effect on the inhibitory effect of QRFP on isoproterenol-induced lipolysis: compound at 10^−9 to 10^−7 M
Method: The effectiveness of compounds of the invention to antagonize the QRFP-induced inhibition of isoproterenol-induced lipolysis was investigated using an adipocyte cell line model.
Cells were then were maintained in DMEM with 10% FBS for 2 days before lipolysis study.
All the cellular assays were performed in triplicate for each time point if not otherwise specified.
Differentiated 3T3-L1 cells were first washed with DMEM and incubated with DMEM containing 200 nM adenosine for 1 h at 37° C. The incubation medium was then removed. The lipolysis was induced by incubating the cells with DMEM supplemented with 2% bovine serum albumin fatty acid free and adenosine deaminase (1 U/mL) containing 100 nM of isoproterenol for 90 min at 37° C. The incubation medium (600 μL) was collected for glycerol assay following triglyceride hydrolysis.
After the incubation period, the incubation medium (600 μL) was collected for free glycerol measurement.
To document the antagonistic effect of compounds of the invention on the antilipolytic effect of QRFP, the dose-response curve of QRFP was carried out as described above in presence of selected compounds of the invention at 10^−9 to 10^−7 M. To document the net effect of QRFP and selected compounds of the invention on lipolysis induced by isoproterenol as control, cells were incubated in absence of isoproterenol in presence of QRFP or selected compounds of the invention at 10^−6 M.
Glycerol released was calculated as μmol/mg of total protein.
Lipolysis index was calculated as: (μmol of glycerol released/mg of protein of sample minus μmol of glycerol released/mg of protein in basal condition)/(μmol of glycerol released/mg of protein induced by 100 nM of isoproterenol minus μmol of glycerol released/mg of protein of basal condition).

male C57BL/6J mice [3] = assay: Fasting-induced feeding behavior (food intake) of mice; assay type: in vivo; details: oral dose 2 μmol per mouse, 30 min before food
Method: The effectiveness of selected compounds of the invention on fasting-induced feeding behavior of mice was investigated.
The experiments were performed according to Asakawa A et al. (Asakawa A et al., Gut 2003, 52: 947-952) with the following technical details:
Preparation of compounds of the invention: dissolved in dimethylsulfoxide (DMSO) and then diluted in distilled water (i.e. 0.5, 1 and 10% DMSO for 0.5, 1 and 2 μmol/mouse, respectively);
Preparation of reference substance (positive control) sibutramine: dissolved in distilled water;
Control substance (negative vehicle control): 10% DMSO in distilled water (compounds of the invention); distilled water (sibutramine);
Route of administration: p.o.;
Pretreatment time: 30 min before presenting the food to the animals;
Volume of administration: 0.5 ml/mouse;
Animals: male C57BL/6J mice;
Body weight range: 18.3-21.4 g

male C57BL/6J mice [4] = assay: as above; assay type: in vivo; details: po
[5] = 6 mg/kg per day and 24 mg/kg per day
[6] = 20 min, read-out: change of food intake - compounds versus vehicle treated negative control, at 20 min
[7] = 1 h, read-out: change of food intake - compounds versus vehicle treated negative control, at 1 h
[8] = 2 h, read-out: change of food intake - compounds versus vehicle treated negative control, at 2 h
[9] = 4 h, read-out: change of food intake - compounds versus vehicle treated negative control, at 4 h

With `CC(C)(N)C(=O)N[C@H](Cc1c[nH]c2ccccc12)c1nnc(CCCc2c[nH]c3ccccc23)n1Cc1ccccc1` [Compound 9, (R)-N-(1-(5-(3-(1H-indol-3-yl)propyl)-4-benzyl-4H-1,2,4-triazol-3-yl)-2-(1H-indol-3-yl)ethyl)-2-amino-2-methylpropanamide] the Fat mass ([1]; 1.5 mg/kg per day s.c.) was 7.9 g, the Food efficiency ([1]; 1.5 mg/kg per day s.c.) was 1.30 mg/kJ and the Lean mass ([1]; 1.5 mg/kg per day s.c.) was 20.2 g. For the same compound, the “Σ Fat depots” value ([1]; 1.5 mg/kg per day s.c.) was 1137 mg, the Body weight gain ([1]; 1.5 mg/kg per day s.c.) was 1.03 g and the Cumulative food intake ([1]; 1.5 mg/kg per day s.c.) was 793 kJ. For the same compound, the “size of the fat depots (in words)” value [1, 5] was “reduced”, the “body weight gain (in words)” value [1, 5] was “significantly decreased” and the Fat mass ([1]; 6.0 mg/kg per day s.c.) was 5.8 g. For the same compound, the Food efficiency ([1]; 6.0 mg/kg per day s.c.) was 0.25 mg/kJ, the Lean mass ([1]; 6.0 mg/kg per day s.c.) was 21.2 g and the “Σ Fat depots” value ([1]; 6.0 mg/kg per day s.c.) was 791 mg. For the same compound, the Body weight gain ([1]; 6.0 mg/kg per day s.c.) was 0.20 g, the Cumulative food intake ([1]; 6.0 mg/kg per day s.c.) was 809 kJ and the Fat mass ([1]; 24 mg/kg per day s.c.) was 5.7 g. The Food efficiency ([1]; 24 mg/kg per day s.c.) was -0.68 mg/kJ, the Lean mass ([1]; 24 mg/kg per day s.c.) was 20.5 g and the “Σ Fat depots” value ([1]; 24 mg/kg per day s.c.) was 792 mg. It also gave a Body weight gain ([1]; 24 mg/kg per day s.c.) of -0.54 g, a Cumulative food intake ([1]; 24 mg/kg per day s.c.) of 790 kJ and a Glucose ([1]; 1.5 mg/kg per day s.c.) of 14.9 mmol/L. For the same compound, the Insulin ([1]; 1.5 mg/kg per day s.c.) was 63.8 pmol/L, the Glucose ([1]; 6.0 mg/kg per day s.c.) was 15.6 mmol/L and the Insulin ([1]; 6.0 mg/kg per day s.c.) was 57.4 pmol/L. It also gave a Glucose ([1]; 24 mg/kg per day s.c.) of 13.1 mmol/L and an Insulin ([1]; 24 mg/kg per day s.c.) of 52.0 pmol/L.

With `CC(C)(N)C(=O)N[C@H](Cc1c[nH]c2ccccc12)c1nnc(Cc2ccccc2)n1Cc1ccccn1` [Compound 39, (R)-N-(1-(5-benzyl-4-(pyridin-2-ylmethyl)-4H-1,2,4-triazol-3-yl)-2-(1H-indol-3-yl)ethyl)-2-amino-2-methylpropanamide] the “IC50 of QRFP-26 (inhibition of isoproterenol-induced lipolysis), shifted in presence of compound” value ([2]; compound at 10^−7 M) was 6.9 nM, the “IC50 of QRFP-26 (inhibition of isoproterenol-induced lipolysis), shifted in presence of compound” value ([2]; compound at 10^−8 M) was 6.6 nM and the “IC50 of QRFP-26 (inhibition of isoproterenol-induced lipolysis), shifted in presence of compound” value ([2]; compound at 10^−9 M) was 5.6 nM. For the same compound, the “effect on the inhibitory effect of QRFP on isoproterenol-induced lipolysis” value [2] was “non-competitive antagonist effect”.

In the case of `COc1ccc(Cn2c(CCc3ccccc3)nnc2[C@@H](Cc2c[nH]c3ccccc23)NC(=O)CN)cc1` [Compound 50, (R)-N-(1-(4-(4-methoxybenzyl)-5-phenethyl-4H-1,2,4-triazol-3-yl)-2-(1H-indol-3-yl)ethyl)-2-aminoacetamide], the Fat mass ([1]; 1.5 mg/kg per day s.c.) is reported as 7.6 g, the Food efficiency ([1]; 1.5 mg/kg per day s.c.) is reported as 1.88 mg/kJ and the Lean mass ([1]; 1.5 mg/kg per day s.c.) is reported as 21.3 g. For the same compound, the “Σ Fat depots” value ([1]; 1.5 mg/kg per day s.c.) was 1101 mg, the Body weight gain ([1]; 1.5 mg/kg per day s.c.) was 1.61 g and the Cumulative food intake ([1]; 1.5 mg/kg per day s.c.) was 852 kJ. For the same compound, the “body weight gain (in words)” value [1, 5] was “significantly decreased”, the Fat mass ([1]; 6.0 mg/kg per day s.c.) was 8.2 g and the Food efficiency ([1]; 6.0 mg/kg per day s.c.) was 1.77 mg/kJ. For the same compound, the Lean mass ([1]; 6.0 mg/kg per day s.c.) was 20.4 g, the “Σ Fat depots” value ([1]; 6.0 mg/kg per day s.c.) was 1192 mg and the Body weight gain ([1]; 6.0 mg/kg per day s.c.) was 1.44 g. The Cumulative food intake ([1]; 6.0 mg/kg per day s.c.) was 813 kJ, the “size of the fat depots (in words)” value ([1]; 24 mg/kg per day) was “reduced” and the Fat mass ([1]; 24 mg/kg per day s.c.) was 6.3 g. The Food efficiency ([1]; 24 mg/kg per day s.c.) was -0.05 mg/kJ, the Lean mass ([1]; 24 mg/kg per day s.c.) was 20.6 g and the “Σ Fat depots” value ([1]; 24 mg/kg per day s.c.) was 902 mg. The Body weight gain ([1]; 24 mg/kg per day s.c.) was -0.04 g, the Cumulative food intake ([1]; 24 mg/kg per day s.c.) was 801 kJ and the Glucose ([1]; 1.5 mg/kg per day s.c.) was 15.6 mmol/L. The Insulin ([1]; 1.5 mg/kg per day s.c.) was 66.3 pmol/L, the Glucose ([1]; 6.0 mg/kg per day s.c.) was 15.2 mmol/L and the Insulin ([1]; 6.0 mg/kg per day s.c.) was 64.8 pmol/L. It also gave a Glucose ([1]; 24 mg/kg per day s.c.) of 15.4 mmol/L, an Insulin ([1]; 24 mg/kg per day s.c.) of 60.3 pmol/L and a change in vivo at 2 µmol/mouse (male C57BL/6J mice [3]; [6]) of -54%. For the same compound, the change in vivo at 2 µmol/mouse (male C57BL/6J mice [3]; [7]) was -44%, the change in vivo at 2 µmol/mouse (male C57BL/6J mice [3]; [8]) was -44% and the change in vivo at 2 µmol/mouse (male C57BL/6J mice [3]; [9]) was -28%.

For `COc1ccc(Cn2c(CCc3ccccc3)nnc2[C@@H](Cc2c[nH]c3ccccc23)NC(=O)c2ccccn2)cc1` [Compound 79, (R)-N-(1-(4-(4-methoxybenzyl)-5-phenethyl-4H-1,2,4-triazol-3-yl)-2-(1H-indol-3-yl)ethyl)picolinamide], the “IC50 of QRFP-26 (inhibition of isoproterenol-induced lipolysis), shifted in presence of compound” value ([2]; compound at 10^−7 M) was 124.4 nM, the “IC50 of QRFP-26 (inhibition of isoproterenol-induced lipolysis), shifted in presence of compound” value ([2]; compound at 10^−9 M) was 2.829 nM and the “effect on the inhibitory effect of QRFP on isoproterenol-induced lipolysis” value [2] was “antagonist effect”.

Compound `COc1ccc(Cn2c(CCc3c[nH]c4ccccc34)nnc2[C@@H](Cc2c[nH]c3ccccc23)NC(=O)[C@@H]2C=CCN2)cc1` [Compound 190, (2S)-N-((R)-1-(5-(2-(1H-indol-3-yl)ethyl)-4-(4-methoxybenzyl)-4H-1,2,4-triazol-3-yl)-2-(1H-indol-3-yl)ethyl)-2,5-dihydro-1H-pyrrole-2-carboxamide] has a change in vivo at 2 µmol/mouse (male C57BL/6J mice [3]; [6]) of -39%, a change in vivo at 2 µmol/mouse (male C57BL/6J mice [3]; [7]) of -30% and a change in vivo at 2 µmol/mouse (male C57BL/6J mice [3]; [8]) of -33%. The change in vivo at 2 µmol/mouse (male C57BL/6J mice [3]; [9]) was -30%.

With `CC(C)CC(N(C)C)C1(c2ccc(Cl)cc2)CCC1` (stereo not drawn) [Sibutramine, 1-(4-chlorophenyl)-N,N-dimethyl-alpha-(2-methylpropyl)-cyclobutane-methanamine] the change in vivo at 0.6 µmol/mouse (male C57BL/6J mice [4]; [6]) was -63%, the change in vivo at 0.6 µmol/mouse (male C57BL/6J mice [4]; [7]) was -66% and the change in vivo at 0.6 µmol/mouse (male C57BL/6J mice [4]; [8]) was -46%. It also gave a change in vivo at 0.6 µmol/mouse (male C57BL/6J mice [4]; [9]) of -21%.
